How the values were obtained:
Test in all cases: radiometric filter-binding kinase assay
[1] = molecular target: CSNK2A1 (human) (UniProt P68400)
[2] = molecular target: DYRK1A (human) (UniProt Q13627)
[3] = system: ROCK2 (rat); conditions: accession and sequence are those of the human protein
[4] = molecular target: EPHB2 (human) (UniProt P29323)
[5] = molecular target: JAK2 JH1 JH2 (human) (UniProt O60674)
[6] = molecular target: AURKB (human) (UniProt Q96GD4)
[7] = molecular target: MAPK13 (human) (UniProt O15264)
Sequence of MAPK13 (human) (O15264 whole entry, looked up): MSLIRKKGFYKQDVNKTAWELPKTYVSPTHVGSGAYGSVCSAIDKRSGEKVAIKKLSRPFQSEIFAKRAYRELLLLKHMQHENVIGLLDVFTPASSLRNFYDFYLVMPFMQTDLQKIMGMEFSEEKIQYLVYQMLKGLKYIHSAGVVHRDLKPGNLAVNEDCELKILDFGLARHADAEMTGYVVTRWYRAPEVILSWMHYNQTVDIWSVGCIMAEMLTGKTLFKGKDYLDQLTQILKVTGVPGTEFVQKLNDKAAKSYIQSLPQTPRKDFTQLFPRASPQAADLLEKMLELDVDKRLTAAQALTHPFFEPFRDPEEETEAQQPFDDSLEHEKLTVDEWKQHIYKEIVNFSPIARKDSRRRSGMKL

[8] = molecular target: MAPK10 (human) (UniProt P53779)
[9] = molecular target: FGFR1 (human) (UniProt P11362)
[10] = molecular target: MINK1 (human) (UniProt Q8N4C8)
[11] = system: PAK2 (human), Q13177 [T402E]
[12] = molecular target: MAPKAPK5 (human) (UniProt Q8IW41)
[13] = molecular target: DAPK1 (human) (UniProt P53355)
Sequence of DAPK1 (human) (P53355 whole entry, looked up): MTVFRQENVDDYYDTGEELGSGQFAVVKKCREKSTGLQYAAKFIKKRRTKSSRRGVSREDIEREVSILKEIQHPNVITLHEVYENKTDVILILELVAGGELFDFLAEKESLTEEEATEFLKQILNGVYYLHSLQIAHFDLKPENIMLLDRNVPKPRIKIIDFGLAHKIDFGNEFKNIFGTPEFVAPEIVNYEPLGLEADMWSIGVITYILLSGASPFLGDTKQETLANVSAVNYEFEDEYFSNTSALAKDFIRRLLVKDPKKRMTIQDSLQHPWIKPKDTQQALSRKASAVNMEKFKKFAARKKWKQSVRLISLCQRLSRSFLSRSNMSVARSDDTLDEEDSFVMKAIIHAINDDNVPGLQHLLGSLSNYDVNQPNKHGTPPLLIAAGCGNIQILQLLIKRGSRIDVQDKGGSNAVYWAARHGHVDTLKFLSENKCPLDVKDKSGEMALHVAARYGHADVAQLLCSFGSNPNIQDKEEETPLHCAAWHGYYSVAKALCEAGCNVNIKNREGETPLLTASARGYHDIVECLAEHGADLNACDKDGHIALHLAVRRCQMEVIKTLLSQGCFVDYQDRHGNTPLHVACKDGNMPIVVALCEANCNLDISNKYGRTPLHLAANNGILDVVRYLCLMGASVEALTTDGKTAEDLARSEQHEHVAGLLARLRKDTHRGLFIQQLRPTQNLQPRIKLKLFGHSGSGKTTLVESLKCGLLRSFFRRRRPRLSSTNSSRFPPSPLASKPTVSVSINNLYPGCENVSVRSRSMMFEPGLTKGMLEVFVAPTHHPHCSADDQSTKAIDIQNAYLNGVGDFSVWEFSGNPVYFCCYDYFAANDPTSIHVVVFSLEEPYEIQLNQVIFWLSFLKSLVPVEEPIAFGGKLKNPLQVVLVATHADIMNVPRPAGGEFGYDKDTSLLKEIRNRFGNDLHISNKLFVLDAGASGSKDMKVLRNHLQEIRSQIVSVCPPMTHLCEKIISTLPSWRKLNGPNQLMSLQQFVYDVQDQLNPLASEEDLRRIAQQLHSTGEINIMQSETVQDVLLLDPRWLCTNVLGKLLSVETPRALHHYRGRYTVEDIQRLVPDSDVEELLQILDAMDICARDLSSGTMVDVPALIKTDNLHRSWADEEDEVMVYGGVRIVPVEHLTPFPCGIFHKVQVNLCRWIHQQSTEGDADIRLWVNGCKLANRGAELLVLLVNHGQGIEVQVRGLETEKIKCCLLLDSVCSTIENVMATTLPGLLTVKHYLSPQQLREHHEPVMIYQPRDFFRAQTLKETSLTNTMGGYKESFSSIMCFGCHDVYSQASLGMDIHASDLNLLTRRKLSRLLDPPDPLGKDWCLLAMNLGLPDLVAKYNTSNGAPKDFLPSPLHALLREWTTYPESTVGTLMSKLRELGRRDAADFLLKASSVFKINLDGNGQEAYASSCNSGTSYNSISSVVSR

[14] = molecular target: STK3 (human) (UniProt Q13188); conditions: compound 1.0 µM
[15] = molecular target: CLK2 (human) (UniProt P49760)
[16] = molecular target: SRPK1 (human) (UniProt Q96SB4)
[17] = molecular target: MKNK1 (human) (UniProt Q9BUB5); conditions: compound 1.0 µM
[18] = molecular target: IGF1R (human) (UniProt P08069); conditions: compound 1.0 µM
[19] = molecular target: HIPK1 (human) (UniProt Q86Z02)
[20] = molecular target: PHKG1 (human) (UniProt Q16816)
[21] = system: LCK (mouse); conditions: accession and sequence are those of the human protein
[22] = molecular target: MARK3 (human) (UniProt P27448)
Sequence of MARK3 (human) (P27448 whole entry, looked up): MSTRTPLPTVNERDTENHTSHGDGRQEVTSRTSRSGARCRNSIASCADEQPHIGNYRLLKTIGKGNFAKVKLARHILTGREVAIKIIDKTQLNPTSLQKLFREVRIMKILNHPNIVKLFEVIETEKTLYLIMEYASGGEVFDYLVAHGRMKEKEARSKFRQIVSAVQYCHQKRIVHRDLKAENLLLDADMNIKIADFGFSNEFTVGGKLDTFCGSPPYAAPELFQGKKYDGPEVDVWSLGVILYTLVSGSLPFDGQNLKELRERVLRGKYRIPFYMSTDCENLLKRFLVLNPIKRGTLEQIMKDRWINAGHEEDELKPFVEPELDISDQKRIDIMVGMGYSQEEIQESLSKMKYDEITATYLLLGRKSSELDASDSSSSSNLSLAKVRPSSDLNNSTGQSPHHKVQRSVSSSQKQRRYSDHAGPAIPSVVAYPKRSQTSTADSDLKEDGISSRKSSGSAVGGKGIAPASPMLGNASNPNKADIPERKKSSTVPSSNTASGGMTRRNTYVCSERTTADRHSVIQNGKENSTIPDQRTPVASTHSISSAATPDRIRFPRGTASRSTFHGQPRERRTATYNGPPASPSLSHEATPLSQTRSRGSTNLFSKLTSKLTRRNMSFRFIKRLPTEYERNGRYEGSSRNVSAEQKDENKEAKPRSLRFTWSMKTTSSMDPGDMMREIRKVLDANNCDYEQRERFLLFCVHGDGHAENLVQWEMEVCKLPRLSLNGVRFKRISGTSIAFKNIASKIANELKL

[23] = molecular target: GCK (human) (UniProt Q12851)
[24] = molecular target: HIPK2 (human) (UniProt Q9H2X6)
Sequence of HIPK2 (human) (Q9H2X6 whole entry, looked up): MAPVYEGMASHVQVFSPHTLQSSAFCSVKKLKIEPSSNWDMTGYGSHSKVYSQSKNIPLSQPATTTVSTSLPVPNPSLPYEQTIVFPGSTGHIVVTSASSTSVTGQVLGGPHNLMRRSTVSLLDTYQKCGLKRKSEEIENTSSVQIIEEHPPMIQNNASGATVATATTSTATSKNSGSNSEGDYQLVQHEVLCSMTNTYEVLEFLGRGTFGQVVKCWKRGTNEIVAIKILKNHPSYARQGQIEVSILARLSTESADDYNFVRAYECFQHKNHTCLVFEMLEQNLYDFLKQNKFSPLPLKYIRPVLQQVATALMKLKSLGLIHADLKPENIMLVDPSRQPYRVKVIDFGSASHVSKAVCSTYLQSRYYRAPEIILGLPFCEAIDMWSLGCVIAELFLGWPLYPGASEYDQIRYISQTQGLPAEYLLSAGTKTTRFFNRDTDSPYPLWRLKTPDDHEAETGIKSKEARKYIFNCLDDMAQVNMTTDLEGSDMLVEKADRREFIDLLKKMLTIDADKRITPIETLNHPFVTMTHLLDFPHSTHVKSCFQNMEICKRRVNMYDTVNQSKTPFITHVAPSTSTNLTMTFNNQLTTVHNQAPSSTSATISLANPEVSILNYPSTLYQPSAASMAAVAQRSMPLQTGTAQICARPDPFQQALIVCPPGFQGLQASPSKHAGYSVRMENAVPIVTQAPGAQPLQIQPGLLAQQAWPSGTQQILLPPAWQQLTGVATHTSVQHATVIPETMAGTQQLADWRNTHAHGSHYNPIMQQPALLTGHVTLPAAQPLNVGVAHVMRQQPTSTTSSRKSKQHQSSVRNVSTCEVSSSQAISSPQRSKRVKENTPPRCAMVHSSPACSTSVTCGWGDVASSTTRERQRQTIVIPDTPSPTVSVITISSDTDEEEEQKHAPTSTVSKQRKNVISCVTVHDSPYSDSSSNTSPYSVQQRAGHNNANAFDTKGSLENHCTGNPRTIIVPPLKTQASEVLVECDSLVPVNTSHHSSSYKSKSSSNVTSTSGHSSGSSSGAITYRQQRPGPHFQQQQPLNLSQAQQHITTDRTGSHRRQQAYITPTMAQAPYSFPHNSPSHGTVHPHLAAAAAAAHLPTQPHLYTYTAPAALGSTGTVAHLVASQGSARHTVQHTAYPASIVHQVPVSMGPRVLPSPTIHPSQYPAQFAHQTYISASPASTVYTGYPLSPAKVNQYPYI

[25] = molecular target: CHEK1 (human) (UniProt O14757)
[26] = molecular target: TBK1 (human) (UniProt Q9UHD2); conditions: compound 1.0 µM
[27] = molecular target: CAMKK2 (human) (UniProt Q96RR4); conditions: compound 1.0 µM
[28] = molecular target: MAPK8 (human) (UniProt P45983)
[29] = molecular target: TAOK1 (human) (UniProt Q7L7X3)
[30] = molecular target: YES1 (human) (UniProt P07947)
[31] = molecular target: PIM3 (human) (UniProt Q86V86); conditions: compound 1.0 µM
[32] = molecular target: BRSK2 (human) (UniProt Q8IWQ3)
[33] = molecular target: CaMK1 (human) (UniProt Q14012)
[34] = molecular target: DYRK3 (human) (UniProt O43781)

Sequence of JAK2 JH1 JH2 (human) (O60674 whole entry, looked up): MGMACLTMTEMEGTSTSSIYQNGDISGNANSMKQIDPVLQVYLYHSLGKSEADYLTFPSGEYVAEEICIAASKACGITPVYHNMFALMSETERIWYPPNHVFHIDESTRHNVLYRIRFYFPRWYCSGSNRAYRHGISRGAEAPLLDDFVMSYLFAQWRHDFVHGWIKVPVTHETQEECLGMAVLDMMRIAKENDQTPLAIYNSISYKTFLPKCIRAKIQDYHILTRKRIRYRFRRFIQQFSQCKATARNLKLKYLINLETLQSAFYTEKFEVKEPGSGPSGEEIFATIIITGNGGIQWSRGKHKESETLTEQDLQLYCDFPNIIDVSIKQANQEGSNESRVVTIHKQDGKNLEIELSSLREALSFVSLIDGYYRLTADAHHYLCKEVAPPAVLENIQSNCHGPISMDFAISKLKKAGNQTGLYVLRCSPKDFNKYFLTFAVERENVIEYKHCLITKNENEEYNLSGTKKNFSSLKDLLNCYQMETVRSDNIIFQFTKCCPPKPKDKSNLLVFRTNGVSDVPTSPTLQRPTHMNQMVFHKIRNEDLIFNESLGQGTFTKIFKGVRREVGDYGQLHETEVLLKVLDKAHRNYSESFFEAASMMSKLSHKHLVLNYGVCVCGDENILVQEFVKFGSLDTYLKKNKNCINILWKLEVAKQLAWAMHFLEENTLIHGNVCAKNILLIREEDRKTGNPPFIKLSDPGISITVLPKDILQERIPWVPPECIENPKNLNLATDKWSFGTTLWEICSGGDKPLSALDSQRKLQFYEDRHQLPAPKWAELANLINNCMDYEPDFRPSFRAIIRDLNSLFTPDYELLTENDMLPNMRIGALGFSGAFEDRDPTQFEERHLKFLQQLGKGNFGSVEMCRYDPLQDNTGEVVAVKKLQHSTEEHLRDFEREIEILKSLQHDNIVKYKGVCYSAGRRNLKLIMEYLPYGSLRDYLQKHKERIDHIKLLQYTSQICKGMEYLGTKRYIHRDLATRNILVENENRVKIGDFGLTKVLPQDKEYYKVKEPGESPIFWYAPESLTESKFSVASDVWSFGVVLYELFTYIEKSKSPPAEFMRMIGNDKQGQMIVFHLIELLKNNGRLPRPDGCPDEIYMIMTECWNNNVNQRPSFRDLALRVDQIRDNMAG

Compound: Cc1cc(NC(=O)c2cccc(NC(=O)/C=C/CN(C)C)c2)ccc1Nc1nccc(-c2cccnc2)n1
- residual activity ([1]; compound 0.1 µM): 93%
- residual activity ([1]; compound 1.0 µM): 77%
- residual activity ([2]; compound 0.1 µM): 98%
- residual activity ([2]; compound 1.0 µM): 84%
- residual activity ([3]; compound 0.1 µM): 86%
- residual activity ([3]; compound 1.0 µM): 80%
- residual activity ([4]; compound 0.1 µM): 101%
- residual activity ([4]; compound 1.0 µM): 97%
- residual activity ([5]; compound 0.1 µM): 100%
- residual activity ([5]; compound 1.0 µM): 94%
- residual activity ([6]; compound 0.1 µM): 87%
- residual activity ([6]; compound 1.0 µM): 86%
- residual activity ([7]; compound 0.1 µM): 96%
- residual activity ([7]; compound 1.0 µM): 80%
- residual activity ([8]; compound 0.1 µM): 14%
- residual activity ([8]; compound 1.0 µM): 13%
- residual activity ([9]; compound 0.1 µM): 103%
- residual activity ([9]; compound 1.0 µM): 82%
- residual activity ([10]; compound 0.1 µM): 94%
- residual activity ([10]; compound 1.0 µM): 78%
- residual activity ([11]; compound 0.1 µM): 99%
- residual activity ([11]; compound 1.0 µM): 90%
- residual activity ([12]; compound 0.1 µM): 92%
- residual activity ([12]; compound 1.0 µM): 82%
- residual activity ([13]; compound 0.1 µM): 102%
- residual activity ([13]; compound 1.0 µM): 90%
- residual activity [14]: 72%
- residual activity ([15]; compound 0.1 µM): 102%
- residual activity ([15]; compound 1.0 µM): 88%
- residual activity ([16]; compound 0.1 µM): 97%
- residual activity ([16]; compound 1.0 µM): 84%
- residual activity [17]: 88%
- residual activity [18]: 87%
- residual activity ([19]; compound 0.1 µM): 103%
- residual activity ([19]; compound 1.0 µM): 87%
- residual activity ([20]; compound 0.1 µM): 85%
- residual activity ([20]; compound 1.0 µM): 86%
- residual activity ([21]; compound 0.1 µM): 96%
- residual activity ([21]; compound 1.0 µM): 92%
- residual activity ([22]; compound 0.1 µM): 92%
- residual activity ([22]; compound 1.0 µM): 93%
- residual activity ([23]; compound 0.1 µM): 98%
- residual activity ([23]; compound 1.0 µM): 73%
- residual activity ([24]; compound 0.1 µM): 92%
- residual activity ([24]; compound 1.0 µM): 99%
- residual activity ([25]; compound 0.1 µM): 102%
- residual activity ([25]; compound 1.0 µM): 87%
- residual activity [26]: 106%
- residual activity [27]: 63%
- residual activity ([28]; compound 0.1 µM): 13%
- residual activity ([28]; compound 1.0 µM): 6%
- residual activity ([29]; compound 0.1 µM): 124%
- residual activity ([29]; compound 1.0 µM): 97%
- residual activity ([30]; compound 0.1 µM): 87%
- residual activity ([30]; compound 1.0 µM): 39%
- residual activity [31]: 83%
- residual activity ([32]; compound 0.1 µM): 87%
- residual activity ([32]; compound 1.0 µM): 77%
- residual activity ([33]; compound 0.1 µM): 92%
- residual activity ([33]; compound 1.0 µM): 86%
- residual activity ([34]; compound 0.1 µM): 94%
- residual activity ([34]; compound 1.0 µM): 80%

From the kinase profiling compilation of Christmann-Franck et al. (2016)
